# Reference: patent US12213482B2, “Fungicide enhancers effective for treating plants infected with fungal pathogens” (Board of Regents, The University of Texas System, priority 2015, dated 2025)
# Tests used:
# Type in all cases: cell-based
# Botrytis cinerea = experiment: Antifungal susceptibility disk test, fungicide disk plus apyrase inhibitor in plate; details: inhibitor 65 μM, 30° C., 12 days; for inhibitory effect on the growth of B. cinerea compared to myclobutanil alone: combined with myclobutanil (53.6 mM) disk, FIG. 2B; for inhibitory effect on the growth of B. cinerea compared to propiconazole alone: combined with propiconazole (418 mM) disk, FIG. 2C
# Method: 2A. Copper Octanoate, 2B. Propiconazole, and 2C. Myclobutanil against the pathogenic fungi Botrytis cinerea. […] The equivalent volume of dimethylsulphoxide (DMSO) was added as a control. The studies were repeated two times with similar results. Error bars indicate standard deviations (n=5). The significances of the potency of fungicides are indicated: *** (Student's t-test, P<0.001); ** (Student's t-test, P<0.01) or *(Student's t-test, P<0.05). The plant pathogenic fungal strains Botrytis cinerea, Colletotrichum graminicola, Fusarium oxysporum, Sclerotiana sclerotiorum and Verticillium dahliae were obtained from the Institute for Plant Genomics & Biotechnology, Texas A & M University, USA Potato dextrose agar (PDA, Sigma-Aldrich) was routinely used for the growth of different pathogenic fungal strain. Ectophosphatase inhibitors NGXT191 (AI.1), AI.10, NGXT1913 (AI.13), and AI. 15 were used dal this study. The fungicides copper octanoate (C16H30CuO4), myclobutanil (C15H17ClN4) and propiconazole (C15H17Cl2N3O2) were used. The concentrations of these compounds used were copper octanoate (285 mM), myclobutanil (53.6 mM) and propiconazole (418 mM). Standard antifungal susceptibility disk tests were performed to determine any potentiating effect of ectophosphatase inhibitors on the growth of pathogenic fungus. The pathogenic fungus wild-type strains were plated on PDA medium with paper-disks containing, fungicides at the center of the plate. […] Plates were incubated at 30° C. for 7-days (C. graminicola and S. sclerotiorum) or 12-days (B. cinerea, F. oxysporum and V. dahliae), depending on the growth rate of the fungi. Plates were photographed, and the zone of fungal growth inhibition was measured by using IMAGE J™ software (NIH, USA). All the tests were performed with 5 replicates. The studies were performed two times. Results were analyzed for significance using Student T-tests.
# Sclerotiana sclerotiorum = experiment: as above; details: inhibitor 65 μM, 30° C., 7 days; for inhibitory effect on the growth of Sclerotiana sclerotiorum compared to copper octanoate alone: combined with copper octanoate (285 mM) disk, FIG. 5A; for inhibitory effect on growth of Sclerotiana sclerotiorum compared to myclobutanil alone: combined with myclobutanil (53.6 mM) disk, FIG. 5B; for inhibitory effect on the growth of Sclerotiana sclerotiorum compared to propiconazole alone: combined with propiconazole (418 mM) disk, FIG. 5C
# Method: The equivalent volume of dimethylsulphoxide (DMSO) was added as a control. The studies were repeated two times with similar results. Error bars indicate standard deviations (n=5). The significances of the potency of fungicides are indicated: *** (Student's t-test, P<0.001); **(Student's t-test, P<0.01) or *(Student's t-test, P<0.05). The plant pathogenic fungal strains Botrytis cinerea, Colletotrichum graminicola, Fusarium oxysporum, Sclerotiana sclerotiorum and Verticillium dahliae were obtained from the Institute for Plant Genomics & Biotechnology, Texas A & M University, USA Potato dextrose agar (PDA, Sigma-Aldrich) was routinely used for the growth of different pathogenic fungal strain. Ectophosphatase inhibitors NGXT191 (AI.1), AI.10, NGXT1913 (AI.13), and AI. 15 were used dal this study. The fungicides copper octanoate (C16H30CuO4), myclobutanil (C15H17ClN4) and propiconazole (C15H17Cl2N3O2) were used. The concentrations of these compounds used were copper octanoate (285 mM), myclobutanil (53.6 mM) and propiconazole (418 mM). Standard antifungal susceptibility disk tests were performed to determine any potentiating effect of ectophosphatase inhibitors on the growth of pathogenic fungus. The pathogenic fungus wild-type strains were plated on PDA medium with paper-disks containing, fungicides at the center of the plate. […] Plates were incubated at 30° C. for 7-days (C. graminicola and S. sclerotiorum) or 12-days (B. cinerea, F. oxysporum and V. dahliae), depending on the growth rate of the fungi. Plates were photographed, and the zone of fungal growth inhibition was measured by using IMAGE J™ software (NIH, USA). All the tests were performed with 5 replicates. The studies were performed two times. Results were analyzed for significance using Student T-tests.
# plant pathogenic fungi = experiment: Fungal plate assays, apyrase inhibitors tested alone; details: apyrase inhibitor alone, no fungicide
# Method: Standard antifungal susceptibility disk tests were performed to determine any potentiating effect of ectophosphatase inhibitors on the growth of pathogenic fungus. The pathogenic fungus wild-type strains were plated on PDA medium with paper-disks containing, fungicides at the center of the plate. […] Plates were incubated at 30° C. for 7-days (C. graminicola and S. sclerotiorum) or 12-days (B. cinerea, F. oxysporum and V. dahliae), depending on the growth rate of the fungi. Plates were photographed, and the zone of fungal growth inhibition was measured by using IMAGE J™ software (NIH, USA). All the tests were performed with 5 replicates. The studies were performed two times. Results were analyzed for significance using Student T-tests.
SMILES,inhibitory effect on the growth of B. cinerea compared to myclobutanil alone (Botrytis cinerea),inhibitory effect on the growth of B. cinerea compared to propiconazole alone (Botrytis cinerea),inhibitory effect on the growth of Sclerotiana sclerotiorum compared to copper octanoate alone (Sclerotiana sclerotiorum),inhibitory effect on growth of Sclerotiana sclerotiorum compared to myclobutanil alone (Sclerotiana sclerotiorum),inhibitory effect on the growth of Sclerotiana sclerotiorum compared to propiconazole alone (Sclerotiana sclerotiorum),fungicidal activity when tested alone (plant pathogenic fungi)
"Cc1cccc(NS(=O)(=O)c2ccc(-c3ccccc3)cc2)c1 [AI.1, N-(m-tolyl)-[1,1′-biphenyl]-4-sulfonamide]",significantly greater inhibitory effect,greater inhibitory effect,significantly greater inhibitory effect,significantly greater inhibitory effect,significantly greater inhibitory effect,no fungicidal activity was detected
"CCCCCCCSC(=O)c1cc2ccccc2oc1=O [AI.10, S-heptyl 2-oxo-2H-chromene-3-carbothioate]",–,greater inhibitory effect,significantly greater inhibitory effect,significantly greater inhibitory effect,significantly greater inhibitory effect,no fungicidal activity was detected
"O=C(Nc1cccc([N+](=O)[O-])c1)c1cccc(S(=O)(=O)Nc2ccc(Br)cc2)c1 [AI.13, 3-(N-(4-bromophenyl)sulfamoyl)-N-(3-nitrophenyl)benzamide]",significantly greater inhibitory effect,–,significantly greater inhibitory effect,significantly greater inhibitory effect,significantly greater inhibitory effect,no fungicidal activity was detected
"C/C(=N\NC(=O)c1cccc(C)c1)c1ccc2ccccc2c1 [AI.15, (E)-3-methyl-N′-(1-(naphthalen-2-yl)ethylidene)benzohydrazide]",significantly greater inhibitory effect,greater inhibitory effect,significantly greater inhibitory effect,significantly greater inhibitory effect,significantly greater inhibitory effect,no fungicidal activity was detected
